Counter-ions that a name gives are not always drawn. Like-named read-outs stand apart in the source and are kept apart here.
How the values were obtained:
[1] = biological target: human dopamine transporter (Homo sapiens (Human), UniProt Q01959); assay: Dopamine functional uptake assay, recombinant human transporter in CHO-K1 or HEK293 cells; format: cell-based; conditions: read-out: hDAT IC50
[2] = biological target: human serotonin transporter (Homo sapiens (Human), UniProt P31645); assay: Serotonin functional uptake assay, recombinant human transporter in HEK-293 cells; format: cell-based
human serotonin transporter, sequence (P31645 whole entry): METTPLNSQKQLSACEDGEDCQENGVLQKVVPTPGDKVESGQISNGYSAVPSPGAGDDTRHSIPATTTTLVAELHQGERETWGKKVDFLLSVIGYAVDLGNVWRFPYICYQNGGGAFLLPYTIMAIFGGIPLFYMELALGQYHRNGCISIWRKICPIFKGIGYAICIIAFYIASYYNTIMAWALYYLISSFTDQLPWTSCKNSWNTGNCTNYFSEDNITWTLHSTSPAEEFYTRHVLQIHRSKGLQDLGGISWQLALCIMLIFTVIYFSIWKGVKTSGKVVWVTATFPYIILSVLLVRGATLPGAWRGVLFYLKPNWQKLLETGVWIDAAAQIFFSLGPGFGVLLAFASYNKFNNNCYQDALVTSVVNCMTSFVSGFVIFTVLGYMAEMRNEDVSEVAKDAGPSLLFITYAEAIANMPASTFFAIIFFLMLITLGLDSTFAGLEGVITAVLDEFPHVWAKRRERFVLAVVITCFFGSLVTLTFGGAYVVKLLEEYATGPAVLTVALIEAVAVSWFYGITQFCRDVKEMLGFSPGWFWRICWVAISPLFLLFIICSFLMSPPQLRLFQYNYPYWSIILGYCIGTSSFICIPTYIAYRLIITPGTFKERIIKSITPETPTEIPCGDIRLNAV

[3] = biological target: DA Transporter (DAT) sites in mouse brain (Mus musculus (Mouse), UniProt Q61327); assay: Ex vivo [3H] WIN 35428 binding to DAT sites in mouse brain after oral dosing; conditions: mice, 60 min after treatment
[4] = biological target: 5-HT Transporter (SERT) sites in mouse brain (Mus musculus (Mouse), UniProt Q60857); assay: Ex vivo [3H] citalopram binding to SERT sites in mouse brain after oral dosing; conditions: mice, 60 min after treatment
[5] = Human serotonin transporter uptake, read-out: hSERT IC50

human dopamine transporter, sequence (Q01959 whole entry): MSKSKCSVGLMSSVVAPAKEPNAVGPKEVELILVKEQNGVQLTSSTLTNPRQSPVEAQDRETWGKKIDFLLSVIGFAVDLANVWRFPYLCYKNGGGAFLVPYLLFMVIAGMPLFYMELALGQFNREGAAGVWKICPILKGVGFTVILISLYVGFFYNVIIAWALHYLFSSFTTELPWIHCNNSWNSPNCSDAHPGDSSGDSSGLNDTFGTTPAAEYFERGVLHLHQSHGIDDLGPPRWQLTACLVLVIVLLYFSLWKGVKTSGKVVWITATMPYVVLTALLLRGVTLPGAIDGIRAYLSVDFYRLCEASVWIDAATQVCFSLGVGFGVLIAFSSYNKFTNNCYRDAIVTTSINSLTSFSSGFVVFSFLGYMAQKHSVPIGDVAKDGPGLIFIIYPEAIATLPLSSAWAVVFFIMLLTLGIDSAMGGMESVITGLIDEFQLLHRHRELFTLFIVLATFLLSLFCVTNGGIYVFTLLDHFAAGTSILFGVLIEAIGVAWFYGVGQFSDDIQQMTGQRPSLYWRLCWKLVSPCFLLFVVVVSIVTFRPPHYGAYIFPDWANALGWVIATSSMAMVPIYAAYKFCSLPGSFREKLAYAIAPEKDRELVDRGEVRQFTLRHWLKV

SMILES	IC50 [1]	IC50 [2, 5]	further results
OC1CCCC1NCC1(c2ccc(Cl)c(Cl)c2)CCCCC1 (racemic) [Compound 116, (±) 2-((1-(3,4-dichlorophenyl)cyclohexyl)methylamino)cyclopentanol]	3 nM	2060 nM	
C[C@@H]1CCCC[C@@]1(CN)c1ccc(Cl)c(Cl)c1 (racemic) [Compound 174, (±)-cis-(1-(3,4-dichlorophenyl)-2-methylcyclohexyl)methanamine hydrochloride]	2780 nM	246 nM	
C[C@@H]1CCCC[C@@]1(CN(C)C)c1ccc(Cl)c(Cl)c1 (racemic) [Compound 175, (±) cis-1-(1-(3,4-dichlorophenyl)-2-methylcyclohexyl)-N,N-dimethylmethanamine hydrochloride]	125 nM	55 nM	
CNC[C@@]1(c2ccc(Cl)c(Cl)c2)CCCC[C@H]1C (racemic) [Compound 176, (±) cis-1-(1-(3,4-dichlorophenyl)-2-methylcyclohexyl)-N-methylmethanamine]	775 nM	533 nM	
CCNC[C@@]1(c2ccc(Cl)c(Cl)c2)CCCC[C@H]1C (racemic) [Compound 177, (±) cis-N-((1-(3,4-dichlorophenyl)-2-methylcyclohexyl)methyl)ethanamine]	322 nM	3220 nM	
CNC(=O)[C@@]1(c2ccc3ccccc3c2)CCCC[C@H]1O (relative stereo) [Compound 300, cis-2-hydroxy-N-methyl-1-(naphthalen-2-yl)cyclohexanecarboxamide]	1730 nM	> 10000 nM	
CNC(C)C1(c2ccc3ccccc3c2)CCCCC1 (single isomer, unassigned) [58 E1, N-methyl-1-(1-(naphthalen-2-yl)cyclohexyl)ethanamine]			DAT Mean Specific Binding ± S.E.M. ([3]; 1 mg/kg PO): 15732 ± 1360 dpm; DAT Mean Specific Binding ± S.E.M. ([3]; 3 mg/kg PO): 14938 ± 2613 dpm; DAT Mean Specific Binding ± S.E.M. ([3]; 10 mg/kg PO): 17215 ± 2151 dpm; DAT Mean Specific Binding ± S.E.M. ([3]; 30 mg/kg PO): 12876 ± 2152 dpm; receptor occupancy at 1 mg/kg ([3]; mouse, 1 mg/kg PO): 7%; receptor occupancy at 3 mg/kg ([3]; mouse, 3 mg/kg PO): 11%; receptor occupancy at 10 mg/kg ([3]; mouse, 10 mg/kg PO): -2%; receptor occupancy at 30 mg/kg ([3]; mouse, 30 mg/kg PO): 24%; SERT Mean Specific Binding ± S.E.M. ([4]; 1 mg/kg PO): 3245 ± 107 dpm; SERT Mean Specific Binding ± S.E.M. ([4]; 3 mg/kg PO): 3021 ± 182 dpm; SERT Mean Specific Binding ± S.E.M. ([4]; 10 mg/kg PO): 1799 ± 115 dpm; SERT Mean Specific Binding ± S.E.M. ([4]; 30 mg/kg PO): 469 ± 43 dpm; receptor occupancy at 1 mg/kg ([4]; mouse, 1 mg/kg PO): 5%; receptor occupancy at 3 mg/kg ([4]; mouse, 3 mg/kg PO): 11%; receptor occupancy at 10 mg/kg ([4]; mouse, 10 mg/kg PO): 47%; receptor occupancy at 30 mg/kg ([4]; mouse, 30 mg/kg PO): 86%
CNC[C@]1(c2ccc(Cl)cc2)CCCC[C@H]1O (single isomer, unassigned) [136 E1, trans-2-(4-chlorophenyl)-2-((methylamino)methyl)-cyclohexanol]	2870 nM		
CNC[C@]1(c2ccc(Cl)cc2)CCCC[C@H]1O (single isomer, unassigned) [136 E2, trans-2-(4-chlorophenyl)-2-((methylamino)methyl)-cyclohexanol]	3370 nM		
CNC[C@]1(c2cccc(Cl)c2)CCCC[C@H]1O (single isomer, unassigned) [138 E1, trans-2-(3-chlorophenyl)-2-((methylamino)methyl)cyclohexanol]	918 nM		IC50 ([2]; hSERT IC50): > 10000 nM
CNC[C@]1(c2cccc(Cl)c2)CCCC[C@H]1O (single isomer, unassigned) [138 E2, trans-2-(3-chlorophenyl)-2-((methylamino)methyl)cyclohexanol]	2540 nM	7000 nM	
CNC[C@]1(c2ccc(OC)cc2)CCCC[C@H]1O (single isomer, unassigned) [140 E1, (±) trans-2-(4-Methoxyphenyl)-2-((methylamino)methyl)cyclohexanol]	8820 nM	2690 nM	
CNC[C@]1(c2ccc(OC)cc2)CCCC[C@H]1O (single isomer, unassigned) [140 E2, (±) trans-2-(4-Methoxyphenyl)-2-((methylamino)methyl)cyclohexanol]	5670 nM		
CNC[C@@]1(c2ccc(C(F)(F)F)cc2)CCCC[C@H]1O (single isomer, unassigned) [143 E2, cis-2-((methylamino)methyl)-2-(4-(trifluoromethyl)phenyl)cyclohexanol]		7170 nM	
CNC[C@]1(c2ccc(C(F)(F)F)cc2)CCCC[C@H]1O (single isomer, unassigned) [144 E1, trans-2-((Methylamino)methyl)-2-(4-(trifluoromethyl)phenyl) cyclohexanol]		5630 nM	
CNC[C@@]1(c2ccc(OC(F)(F)F)cc2)CCCC[C@H]1O (single isomer, unassigned) [145 E1, cis-2-((Methylamino)methyl)-2-(4-(trifluoromethoxy)phenyl) cyclohexanol]	4730 nM	75 nM	
CNC[C@@]1(c2ccc(OC(F)(F)F)cc2)CCCC[C@H]1O (single isomer, unassigned) [145 E2, cis-2-((Methylamino)methyl)-2-(4-(trifluoromethoxy)phenyl) cyclohexanol]	6520 nM	220 nM	
CNC[C@]1(c2ccc(OC(F)(F)F)cc2)CCCC[C@H]1O (single isomer, unassigned) [146 E1, trans-2-((Methylamino)methyl)-2-(4-(trifluoromethoxy)phenyl) cyclohexanol]		4540 nM	

SMILES	IC50 [1]	IC50 [2, 5]	further results
CNC[C@]1(c2ccc(OC(F)(F)F)cc2)CCCC[C@H]1O (single isomer, unassigned) [146 E2, trans-2-((Methylamino)methyl)-2-(4-(trifluoromethoxy)phenyl) cyclohexanol]		2280 nM	
CN(C)C[C@@]1(c2ccc(Cl)c(Cl)c2)CCCC[C@H]1O (single isomer, unassigned) [152 E1, cis-2-(3,4-dichlorophenyl)-2-((dimethylamino)methyl)cyclohexanol]	[…]	405 nM	
CN(C)C[C@@]1(c2ccc(Cl)c(Cl)c2)CCCC[C@H]1O (single isomer, unassigned) [152 E2, cis-2-(3,4-dichlorophenyl)-2-((dimethylamino)methyl)cyclohexanol]	[…]	77 nM	
CN(C)C[C@]1(c2ccc(Cl)c(Cl)c2)CCCC[C@H]1O (single isomer, unassigned) [153 E1, trans-2-(3,4-dichlorophenyl)-2-((dimethylamino)methyl)cyclohexanol]	[…]	17 nM	
CN(C)C[C@]1(c2ccc(Cl)cc2)CCCC[C@H]1O (single isomer, unassigned) [154 E1, trans-2-(4-chlorophenyl)-2-((dimethylamino)methyl)cyclohexanol]	795 nM	2170 nM	
CN(C)C[C@]1(c2ccc(Cl)cc2)CCCC[C@H]1O (single isomer, unassigned) [154 E2, trans-2-(4-chlorophenyl)-2-((dimethylamino)methyl)cyclohexanol]	888 nM	439 nM	
COc1ccc([C@]2(CN(C)C)CCCC[C@H]2O)cc1 (single isomer, unassigned) [155 E1, Cis-2-((dimethylamino)methyl)-2-(4-methoxyphenyl)cyclohexanol]		2990 nM	
COc1ccc([C@]2(CN(C)C)CCCC[C@H]2O)cc1 (single isomer, unassigned) [155 E2, Cis-2-((dimethylamino)methyl)-2-(4-methoxyphenyl)cyclohexanol]		6280 nM	
COc1ccc([C@@]2(CN(C)C)CCCC[C@H]2O)cc1 (single isomer, unassigned) [156 E1, trans-2-((dimethylamino)methyl)-2-(4-methoxyphenyl)cyclohexanol]	1310 nM	76 nM	
NC[C@]1(c2ccc(Cl)c(Cl)c2)CCC[C@H](O)C1 (single isomer, unassigned) [184 E1, Cis-3-(aminomethyl)-3-(3,4-dichlorophenyl)cyclohexanol]	213 nM		
NC[C@]1(c2ccc(Cl)c(Cl)c2)CCC[C@H](O)C1 (single isomer, unassigned) [184 E2, Cis-3-(aminomethyl)-3-(3,4-dichlorophenyl)cyclohexanol]	789 nM		
NC[C@@]1(c2ccc(Cl)c(Cl)c2)CCC[C@H](O)C1 (single isomer, unassigned) [185 E1, Trans-3-(aminomethyl)-3-(3,4-dichlorophenyl)cyclohexanol]	421 nM		
NC[C@@]1(c2ccc(Cl)c(Cl)c2)CCC[C@H](O)C1 (single isomer, unassigned) [185 E2, Trans-3-(aminomethyl)-3-(3,4-dichlorophenyl)cyclohexanol]	121 nM		
CN(C)C[C@]1(c2ccc(Cl)c(Cl)c2)CCC[C@H](O)C1 (single isomer, unassigned) [190 E1, Cis-3-(3,4-dichlorophenyl)-3-((dimethylamino)methyl)cyclohexanol]	24 nM		
CN(C)C[C@@]1(c2ccc(Cl)c(Cl)c2)CCC[C@H](O)C1 (single isomer, unassigned) [191 E2, Trans-3-(3,4-dichlorophenyl)-3-((dimethylamino)methyl)cyclohexanol]	2 nM		
CC1(O)CCC(CN)(c2ccc(Cl)c(Cl)c2)CC1 (centres unmarked) [Compound 272, 4-(aminomethyl)-4-(3,4-dichlorophenyl)-1-methylcyclohexanol]	2600 nM		
CC1(O)CCC(CN)(c2ccc(Cl)c(Cl)c2)CC1 (centres unmarked) [Compound 275, 4-(aminomethyl)-4-(3,4-dichlorophenyl)-1-methylcyclohexanol]	518 nM		
NC[C@]1(c2ccc(Cl)c(Cl)c2)CC[C@H](O)CC1 [Compound 299, (1s,4s)-4-(aminomethyl)-4-(3,4-dichlorophenyl)cyclohexanol]		3870 nM	
